According to the supplement of paper PMC8671470:

What was measured:
Details in all cases: 72 h
[1] = tested on: BV-173
Outline: (§1)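 The IC50 was read from log-logistic dose–response fits. Fifteen myeloid leukaemia lines were exposed for 72 h at 37 °C with 5% CO2 to five tenfold doses from 1 to 10,000 nM in duplicate. ATP luminescence, normalised to vehicle and to a 10 µM positive control, was fitted with four parameters.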

[2] = tested on: HEL
Outline: as §1

[3] = tested on: HL-60
Outline: as §1

[4] = tested on: K-562
Outline: as §1

[5] = tested on: KCL-22
Outline: as §1

[6] = tested on: KG-1
Outline: as §1

[7] = tested on: KU-812
Outline: as §1

[8] = tested on: LAMA-84
Outline: as §1

[9] = tested on: ML-2
Outline: as §1

[10] = tested on: MOLM-13
Outline: as §1

[11] = tested on: MV4-11
Outline: as §1

[12] = tested on: Mono-Mac-6
Outline: as §1

[13] = tested on: NOMO-1
Outline: as §1

[14] = tested on: SHI-1
Outline: as §1

[15] = tested on: THP-1
Outline: as §1

[16] = tested on: BV-173; experiment: cell viability (% survival relative to DMSO control, bortezomib = 0%); higher = less cytotoxic
Outline: (§2)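 Fifteen myeloid leukaemia cell lines (10 AML, 5 CML) were seeded at a density titrated to the linear growth range. They went into 384-well plates with compounds pre-printed at 1, 10, 100, 1000 or 10000 nM in duplicate. After 72 h at 37 °C with 5% CO2, viability was read by CellTiter-Glo luminescence. Values are percent survival, with vehicle set to 100% and a 10 µM positive control to 0%, averaged over the duplicates.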

[17] = tested on: HEL; experiment: as above
Outline: as §2

[18] = tested on: HL-60; experiment: as above
Outline: as §2

[19] = tested on: K-562; experiment: as above
Outline: as §2

[20] = tested on: KCL-22; experiment: as above
Outline: as §2

[21] = tested on: KG-1; experiment: as above
Outline: as §2

[22] = tested on: KU-812; experiment: as above
Outline: as §2

[23] = tested on: LAMA-84; experiment: as above
Outline: as §2

[24] = tested on: ML-2; experiment: as above
Outline: as §2

[25] = tested on: MOLM-13; experiment: as above
Outline: as §2

[26] = tested on: MV4-11; experiment: as above
Outline: as §2

[27] = tested on: Mono-Mac-6; experiment: as above
Outline: as §2

[28] = tested on: NOMO-1; experiment: as above
Outline: as §2

[29] = tested on: SHI-1; experiment: as above
Outline: as §2

[30] = tested on: THP-1; experiment: as above
Outline: as §2

CC(C)c1ccc2c(c1)c(SC(C)(C)C)c(CC(C)(C)C(=O)O)n2Cc1ccc(Cl)cc1 [MK-886]
Details	IC50 (cell viability) [µM]
[1]	> 10
[2]	> 10
[3]	> 10
[4]	> 10
[5]	4.26
[6]	> 10
[7]	> 10
[8]	> 10
[9]	> 10
[10]	> 10
[11]	> 10
[12]	> 10
[13]	> 10
[14]	> 10
[15]	> 10

cell viability [%]
Details	1 nM	10 nM	100 nM	1000 nM	10000 nM
[16]	121	89.6	114	103	94.9
[17]	110	112	99.2	95.3	82.7
[18]	108	103	94.8	93.7	124
[19]	109	97	101	100	106
[20]	108	110	105	89.7	39.1
[21]	111	102	89.4	93.8	91.5
[22]	109	97.3	94.1	94.9	91.5
[23]	96.6	101	97.2	100	115
[24]	132	107	95.3	95.8	67.8
[25]	89	103	88.9	85.3	88.4
[26]	107	109	96.9	94.5	96.5
[27]	111	109	91.5	101	108
[28]	120	110	106	107	97.5
[29]	108	110	104	93.2	98.3
[30]	96.6	101	98.2	96.8	108

CC1Cc2ccccc2N1NC(=O)c1ccc(Cl)c(S(N)(=O)=O)c1 (stereo not given) [Indapamide]
Details	IC50 (cell viability) [µM]
[1]	> 10
[2]	> 10
[3]	> 10
[4]	> 10
[5]	> 10
[6]	> 10
[7]	> 10
[8]	> 10
[9]	> 10
[10]	> 10
[11]	> 10
[12]	> 10
[13]	> 10
[14]	> 10
[15]	> 10

cell viability [%]
Details	1 nM	10 nM	100 nM	1000 nM	10000 nM
[16]	116	93.9	95.3	99.7	91.9
[17]	107	112	101	105	103
[18]	87.7	95	81.6	93	102
[19]	112	97.3	120	100	102
[20]	89.3	105	77.6	102	105
[21]	86.7	105	101	97.3	101
[22]	89.8	111	95.8	104	89.7
[23]	92.2	111	98.1	94.3	91.3
[24]	94.1	98.2	97.5	93.8	100
[25]	100	93.3	96.5	100	86.1
[26]	111	98.4	102	97.8	99.4
[27]	99.6	112	112	110	90.9
[28]	98.2	103	101	101	102
[29]	92.5	93.8	113	102	98
[30]	93.5	105	93.2	95.4	97

Cc1nc(-c2ccc(OCC(C)C)c(C#N)c2)sc1C(=O)O [Febuxostat]
Details	IC50 (cell viability) [µM]
[1]	> 10
[2]	> 10
[3]	> 10
[4]	> 10
[5]	> 10
[6]	> 10
[7]	> 10
[8]	> 10
[9]	> 10
[10]	> 10
[11]	> 10
[12]	> 10
[13]	> 10
[14]	> 10
[15]	> 10

cell viability [%]
Details	1 nM	10 nM	100 nM	1000 nM	10000 nM
[16]	103	101	79.9	99.7	82.6
[17]	97	97.8	106	105	84.5
[18]	103	85.2	114	91.3	99.3
[19]	100	91.3	84.2	113	87.7
[20]	92.5	103	98	104	80.1
[21]	102	97.5	103	94.6	90.4
[22]	101	97.3	94	98.4	83.9
[23]	102	95.7	92.4	105	101
[24]	94	96	100	90.2	86.8
[25]	90.6	102	141	103	94.9
[26]	88.2	104	99.1	105	116
[27]	91.7	102	99	92.9	92.7
[28]	96.3	97.7	98.5	99.6	93.1
[29]	87	97.7	99	99.4	93.8
[30]	102	92.4	95.1	99.6	93.6
